Source: ChEMBL document CHEMBL4507268 (2021)

Assays:
Settings in all cases: Compound concentration 1.0 uM
[1] = target: Tyrosine-protein kinase Lyn (Homo sapiens) (UniProt P07948)
[2] = target: Serine/threonine-protein kinase N1 (Homo sapiens) (UniProt Q16512)
[3] = target: Mitogen-activated protein kinase 8 (Homo sapiens) (UniProt P45983)
[4] = target: T1, Serine/threonine-protein kinase ICK (Homo sapiens) (UniProt Q9UPZ9)
T1 sequence (whole entry): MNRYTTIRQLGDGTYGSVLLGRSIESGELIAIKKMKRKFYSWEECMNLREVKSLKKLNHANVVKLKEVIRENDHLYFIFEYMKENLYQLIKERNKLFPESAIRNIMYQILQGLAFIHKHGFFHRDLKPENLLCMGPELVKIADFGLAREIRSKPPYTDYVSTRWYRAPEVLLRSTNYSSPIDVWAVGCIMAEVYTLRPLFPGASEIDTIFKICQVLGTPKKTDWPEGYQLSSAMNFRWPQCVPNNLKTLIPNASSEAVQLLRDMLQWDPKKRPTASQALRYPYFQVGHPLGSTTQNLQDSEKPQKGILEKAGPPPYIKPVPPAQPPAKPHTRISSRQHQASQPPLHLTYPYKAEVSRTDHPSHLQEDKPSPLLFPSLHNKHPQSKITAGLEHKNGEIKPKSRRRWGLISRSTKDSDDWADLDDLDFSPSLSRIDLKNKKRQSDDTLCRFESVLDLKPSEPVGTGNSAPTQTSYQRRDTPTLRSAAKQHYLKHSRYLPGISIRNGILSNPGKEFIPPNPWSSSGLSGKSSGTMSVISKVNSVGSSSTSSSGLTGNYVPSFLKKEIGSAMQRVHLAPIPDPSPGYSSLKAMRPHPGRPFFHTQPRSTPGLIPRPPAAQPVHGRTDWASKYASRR

[5] = target: T2, cGMP-dependent protein kinase 1 (Homo sapiens) (UniProt Q13976)
T2 sequence (whole entry): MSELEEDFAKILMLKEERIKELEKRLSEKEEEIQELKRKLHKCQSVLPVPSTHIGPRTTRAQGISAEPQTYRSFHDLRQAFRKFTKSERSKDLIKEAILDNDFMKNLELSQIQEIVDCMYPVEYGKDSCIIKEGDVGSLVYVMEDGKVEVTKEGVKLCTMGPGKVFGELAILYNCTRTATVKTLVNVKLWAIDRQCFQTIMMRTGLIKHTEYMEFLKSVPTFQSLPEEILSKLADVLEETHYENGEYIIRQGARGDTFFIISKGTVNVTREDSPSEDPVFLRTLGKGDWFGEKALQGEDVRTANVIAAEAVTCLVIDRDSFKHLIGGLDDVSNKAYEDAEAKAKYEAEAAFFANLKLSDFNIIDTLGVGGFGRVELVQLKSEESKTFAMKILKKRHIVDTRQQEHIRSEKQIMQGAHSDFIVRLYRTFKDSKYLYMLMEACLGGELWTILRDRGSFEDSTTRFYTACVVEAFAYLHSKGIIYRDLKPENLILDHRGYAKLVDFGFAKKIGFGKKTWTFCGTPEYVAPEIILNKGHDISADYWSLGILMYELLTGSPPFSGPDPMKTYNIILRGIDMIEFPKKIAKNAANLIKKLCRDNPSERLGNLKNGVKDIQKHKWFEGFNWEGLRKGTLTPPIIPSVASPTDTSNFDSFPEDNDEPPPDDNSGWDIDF

[6] = target: T3, Myosin-IIIb (Homo sapiens) (UniProt Q8WXR4)
T3 sequence (whole entry): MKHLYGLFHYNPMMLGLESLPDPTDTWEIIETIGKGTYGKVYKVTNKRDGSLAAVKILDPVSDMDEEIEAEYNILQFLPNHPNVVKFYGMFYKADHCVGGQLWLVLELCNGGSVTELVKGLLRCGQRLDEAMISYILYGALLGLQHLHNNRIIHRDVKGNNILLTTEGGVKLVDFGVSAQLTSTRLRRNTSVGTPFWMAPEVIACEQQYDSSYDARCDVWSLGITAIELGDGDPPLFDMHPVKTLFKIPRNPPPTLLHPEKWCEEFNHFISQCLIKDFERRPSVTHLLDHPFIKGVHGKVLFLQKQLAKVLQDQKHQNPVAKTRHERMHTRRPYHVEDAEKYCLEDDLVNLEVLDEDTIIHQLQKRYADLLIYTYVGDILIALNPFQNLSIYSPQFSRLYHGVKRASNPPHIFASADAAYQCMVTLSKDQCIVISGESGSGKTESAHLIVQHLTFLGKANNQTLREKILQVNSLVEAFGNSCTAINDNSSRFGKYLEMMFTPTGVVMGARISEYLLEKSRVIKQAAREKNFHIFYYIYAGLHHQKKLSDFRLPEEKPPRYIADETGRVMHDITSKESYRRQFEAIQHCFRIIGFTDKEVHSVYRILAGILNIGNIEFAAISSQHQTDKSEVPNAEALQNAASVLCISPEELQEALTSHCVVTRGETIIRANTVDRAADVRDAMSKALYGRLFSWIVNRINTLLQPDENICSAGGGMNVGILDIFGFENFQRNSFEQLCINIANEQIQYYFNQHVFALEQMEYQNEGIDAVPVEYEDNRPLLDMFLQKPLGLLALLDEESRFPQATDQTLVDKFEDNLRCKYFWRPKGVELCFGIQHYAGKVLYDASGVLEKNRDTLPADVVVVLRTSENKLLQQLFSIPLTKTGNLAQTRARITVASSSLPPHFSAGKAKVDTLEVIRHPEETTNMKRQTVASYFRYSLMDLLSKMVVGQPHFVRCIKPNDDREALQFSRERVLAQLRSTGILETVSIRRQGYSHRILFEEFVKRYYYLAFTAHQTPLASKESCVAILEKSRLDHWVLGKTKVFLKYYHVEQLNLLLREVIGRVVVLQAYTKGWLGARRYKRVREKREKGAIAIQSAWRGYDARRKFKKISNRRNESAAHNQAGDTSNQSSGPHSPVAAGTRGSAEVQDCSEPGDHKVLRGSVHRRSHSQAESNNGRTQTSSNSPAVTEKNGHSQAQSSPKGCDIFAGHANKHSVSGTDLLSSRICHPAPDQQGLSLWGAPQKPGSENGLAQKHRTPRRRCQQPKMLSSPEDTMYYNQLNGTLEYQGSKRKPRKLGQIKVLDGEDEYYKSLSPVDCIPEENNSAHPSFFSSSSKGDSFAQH

[7] = target: Tyrosine-protein kinase Blk (Homo sapiens) (UniProt P51451)
[8] = target: Tyrosine-protein kinase Lck (Homo sapiens) (UniProt P06239)

Measured: % residual kinase activity

Sequence of Tyrosine-protein kinase Lck (Homo sapiens) (P06239 2-509 limits assumed): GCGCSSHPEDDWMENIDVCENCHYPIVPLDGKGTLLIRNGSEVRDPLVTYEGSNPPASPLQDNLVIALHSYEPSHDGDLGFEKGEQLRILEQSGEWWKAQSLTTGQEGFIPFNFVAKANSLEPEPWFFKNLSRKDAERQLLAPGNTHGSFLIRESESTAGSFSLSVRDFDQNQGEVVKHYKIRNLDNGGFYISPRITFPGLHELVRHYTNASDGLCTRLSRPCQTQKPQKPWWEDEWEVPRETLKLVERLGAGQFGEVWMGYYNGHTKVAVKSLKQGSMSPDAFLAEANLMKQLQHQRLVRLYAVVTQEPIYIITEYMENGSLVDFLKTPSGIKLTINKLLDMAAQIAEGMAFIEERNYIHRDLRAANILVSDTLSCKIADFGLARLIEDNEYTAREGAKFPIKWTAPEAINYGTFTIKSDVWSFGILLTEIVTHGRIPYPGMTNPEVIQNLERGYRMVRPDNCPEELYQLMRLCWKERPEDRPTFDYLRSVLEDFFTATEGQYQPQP
Sequence of Tyrosine-protein kinase Blk (Homo sapiens) (P51451 2-505 limits assumed): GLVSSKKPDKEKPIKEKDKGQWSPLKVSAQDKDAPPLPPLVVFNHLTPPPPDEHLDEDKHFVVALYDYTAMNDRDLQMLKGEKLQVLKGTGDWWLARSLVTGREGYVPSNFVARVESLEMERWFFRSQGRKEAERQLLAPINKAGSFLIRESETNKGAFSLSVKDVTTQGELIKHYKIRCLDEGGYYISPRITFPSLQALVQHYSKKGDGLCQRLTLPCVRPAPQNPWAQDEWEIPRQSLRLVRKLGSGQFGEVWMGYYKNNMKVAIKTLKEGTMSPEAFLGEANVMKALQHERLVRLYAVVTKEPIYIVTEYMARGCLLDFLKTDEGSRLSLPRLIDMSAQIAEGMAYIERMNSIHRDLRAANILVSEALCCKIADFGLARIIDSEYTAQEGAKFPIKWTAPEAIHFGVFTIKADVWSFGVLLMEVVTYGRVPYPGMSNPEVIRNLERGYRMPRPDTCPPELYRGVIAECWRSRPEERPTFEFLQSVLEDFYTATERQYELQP
Sequence of Tyrosine-protein kinase Lyn (Homo sapiens) (P07948 2-512 limits assumed): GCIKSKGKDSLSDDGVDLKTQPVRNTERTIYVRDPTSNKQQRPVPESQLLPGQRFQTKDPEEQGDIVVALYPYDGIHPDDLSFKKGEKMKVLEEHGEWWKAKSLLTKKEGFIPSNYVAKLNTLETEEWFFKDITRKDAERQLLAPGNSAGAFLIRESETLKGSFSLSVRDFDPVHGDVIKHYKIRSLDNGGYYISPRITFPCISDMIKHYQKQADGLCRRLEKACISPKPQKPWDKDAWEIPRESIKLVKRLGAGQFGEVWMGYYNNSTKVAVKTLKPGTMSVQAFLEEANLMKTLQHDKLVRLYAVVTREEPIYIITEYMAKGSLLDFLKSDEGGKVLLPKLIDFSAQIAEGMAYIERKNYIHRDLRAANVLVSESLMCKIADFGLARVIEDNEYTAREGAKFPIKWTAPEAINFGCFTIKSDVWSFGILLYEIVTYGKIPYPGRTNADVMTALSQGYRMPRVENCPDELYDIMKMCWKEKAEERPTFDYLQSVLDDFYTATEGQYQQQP
Sequence of Mitogen-activated protein kinase 8 (Homo sapiens) (P45983 whole entry): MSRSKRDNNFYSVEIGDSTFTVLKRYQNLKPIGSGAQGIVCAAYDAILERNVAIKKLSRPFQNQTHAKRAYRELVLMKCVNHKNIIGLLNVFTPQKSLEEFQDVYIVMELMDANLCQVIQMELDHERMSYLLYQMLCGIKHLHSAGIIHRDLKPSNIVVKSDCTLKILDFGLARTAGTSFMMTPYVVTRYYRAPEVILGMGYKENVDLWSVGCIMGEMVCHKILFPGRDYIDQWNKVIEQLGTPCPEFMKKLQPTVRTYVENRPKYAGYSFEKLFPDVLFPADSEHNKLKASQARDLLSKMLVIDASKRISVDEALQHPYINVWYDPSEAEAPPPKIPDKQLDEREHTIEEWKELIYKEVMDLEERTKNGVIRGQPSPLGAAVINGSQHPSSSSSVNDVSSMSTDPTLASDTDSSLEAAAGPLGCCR
Sequence of Serine/threonine-protein kinase N1 (Homo sapiens) (Q16512 2-942 limits assumed): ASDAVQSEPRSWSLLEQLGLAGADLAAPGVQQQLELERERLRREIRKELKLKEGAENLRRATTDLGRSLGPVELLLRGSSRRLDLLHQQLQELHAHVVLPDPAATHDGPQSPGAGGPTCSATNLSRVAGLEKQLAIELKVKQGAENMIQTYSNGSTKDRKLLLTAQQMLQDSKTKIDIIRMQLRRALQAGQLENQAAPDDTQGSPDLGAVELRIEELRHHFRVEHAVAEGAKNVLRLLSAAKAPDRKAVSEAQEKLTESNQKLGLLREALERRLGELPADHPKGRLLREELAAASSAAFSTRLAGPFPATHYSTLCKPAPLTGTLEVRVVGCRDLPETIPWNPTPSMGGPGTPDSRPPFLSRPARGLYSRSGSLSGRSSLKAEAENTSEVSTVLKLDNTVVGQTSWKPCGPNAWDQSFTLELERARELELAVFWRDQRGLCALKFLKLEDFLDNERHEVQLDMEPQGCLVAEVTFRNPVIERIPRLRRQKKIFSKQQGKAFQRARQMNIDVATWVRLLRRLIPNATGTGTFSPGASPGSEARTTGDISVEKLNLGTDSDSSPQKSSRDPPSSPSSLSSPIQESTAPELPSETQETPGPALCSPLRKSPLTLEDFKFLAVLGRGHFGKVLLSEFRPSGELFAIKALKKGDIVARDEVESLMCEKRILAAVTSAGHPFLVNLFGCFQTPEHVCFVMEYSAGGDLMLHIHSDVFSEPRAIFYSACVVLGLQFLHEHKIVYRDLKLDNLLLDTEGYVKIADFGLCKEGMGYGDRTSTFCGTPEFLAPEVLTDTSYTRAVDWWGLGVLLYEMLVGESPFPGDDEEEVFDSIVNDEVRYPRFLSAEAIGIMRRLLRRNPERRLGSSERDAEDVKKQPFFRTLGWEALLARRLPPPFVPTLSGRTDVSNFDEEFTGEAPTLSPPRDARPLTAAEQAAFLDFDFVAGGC

CN1CCN(c2cnc3c(C4CCN(C(=O)c5ccc(OC(F)(F)F)cc5N)CC4)ncnc3c2)CC1 [BAY-885]
inactive: [1] 100% | [2] 114% | [3] 104% | [4] 93% | [5] 115% | [6] 111% | [7] 88% | [8] 98%
